The source of these data is ChEMBL document CHEMBL5030526, “Synthesis and Preclinical Validation of Novel Indole Derivatives as a GPR17 Agonist for Glioblastoma Treatment” (J Med Chem, 2021).

As usually defined, the EC50 is the midpoint of the concentration-response curve. As usually defined, the inhibition is the drop in the measured response relative to a control, in per cent. The term IC50 denotes the concentration that inhibits the measured activity by half.

Activity calls are given as the source filed them. No cut-off for these calls is given here.

Series [1] has as its target T1, Uracil nucleotide/cysteinyl leukotriene receptor (Homo sapiens, UniProt Q13304). The series can be described thus: Agonist activity at human GPR17 in human LN-229 cells assessed as decrease in intracellular cAMP levels incubated for 2 hrs by cAMP Glo Dynamic assay. For orientation: Cyclic AMP is a second messenger, typically raised through Gs and lowered through Gi signalling.

The target of series [2] is T1, Uracil nucleotide/cysteinyl leukotriene receptor. The series can be described thus: Agonist activity at human GPR17 in human LN-229 cells assessed as decrease in calcium ion levels incubated for 2 hrs by Calcium Fura 2 Dynamic assay.
For series [3] the target is unchanged. The experiment in a line: Agonist activity at human GPR17 in human SNB-19 cells assessed as decrease in calcium ion levels incubated for 2 hrs by Calcium Fura 2 Dynamic assay.
Series [4] deals with LN-229. The series can be described thus: Cytotoxicity against human LN-229 cells assessed as increase in cell death at 100 uM incubated for 48 hrs by trypan blue exclusion assay. It is filed as functional, cell-based.
In series [5] the test system is SNB-19. The series can be described thus: Cytotoxicity against human SNB-19 cells assessed as cell growth inhibition at 100 uM incubated for 48 hrs by trypan blue exclusion assay. It counts as functional. As to conditions: read-out: GI.
Series [6] has as its system LN-229. The experiment in a line: Cytotoxicity against human LN229 cells assessed as cell growth inhibition at 100 uM incubated for 48 hrs by trypan blue exclusion assay. It counts as functional. Conditions: read-out: GI.
The nature of series [7]: Cytotoxicity against mouse MEF cells assessed as cell growth inhibition at 100 uM incubated for 48 hrs by trypan blue exclusion assay. It counts as cell-based.
Series [8] concerns LN-229. The series can be described thus: Cytotoxicity effect against human LN-229 cells assessed as cell growth inhibition incubated for 48 hrs by trypan blue exclusion assay. It is filed as functional, cell-based. As to conditions: LN-229, 48 h.
The test system of series [9] is SNB-19. The experiment in a line: Cytotoxicity effect against human SNB-19 cells assessed as cell growth inhibition incubated for 48 hrs by trypan blue exclusion assay. Conditions: SNB-19, 48 h. It counts as functional, cell-based.
For series [10], the target named is T1, Uracil nucleotide/cysteinyl leukotriene receptor. The experiment in a line: Inverse agonist at human GPR17 in human LN-229 cells assessed as intracellular cAMP levels incubated for 2 hrs by cAMP Glo Dynamic assay.
For series [11] the target is unchanged. The series can be described thus: Inverse agonist at human GPR17 in human SNB-19 cells assessed as intracellular cAMP levels incubated for 2 hrs by cAMP Glo Dynamic assay.

T1 sequence (Q13304 whole entry): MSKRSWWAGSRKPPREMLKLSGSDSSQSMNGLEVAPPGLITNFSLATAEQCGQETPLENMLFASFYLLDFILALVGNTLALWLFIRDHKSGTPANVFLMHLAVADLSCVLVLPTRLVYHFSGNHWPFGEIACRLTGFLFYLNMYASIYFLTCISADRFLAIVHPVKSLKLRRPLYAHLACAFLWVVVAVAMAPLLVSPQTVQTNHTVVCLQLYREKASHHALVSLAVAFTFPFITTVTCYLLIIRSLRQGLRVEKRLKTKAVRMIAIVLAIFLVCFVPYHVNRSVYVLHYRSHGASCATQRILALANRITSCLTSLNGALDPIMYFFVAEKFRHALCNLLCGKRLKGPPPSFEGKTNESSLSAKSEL

Consider `O=C(Nc1ccccc1)Oc1cc(OC(=O)Nc2ccccc2)c2c(c1)N(C(c1ccc(F)cc1)c1cccc(Cl)c1O)CC2` (stereo not given), for which the EC50 was 59.6 µM in [1], 41.9 µM in series [2] and 7.67 µM in series [3]. The outcome with LN-229 [4] was Active. For the same compound, the inhibition of growth at 100 µM worked out at 37% in the series on SNB-19 [5] and 50% with LN-229 [6]. The inhibition at 48 h, 100 µM in series [7] is less than 5%. For the same compound, the results for the IC50 in the series with LN-229 [8] and in the series with SNB-19 [9] were 85.3 µM and 85.5 µM, respectively.

For the compound `O=C(O)CCC1=C(C(=O)O)Cc2cc(Cl)cc(Cl)c21`, the EC50 in series [10] is 16.6 µM; in series [11] it was 17.7 µM; in series [2], 26.9 µM; in series [3], 26.3 µM.

Regarding `Cn1nnc2c(C(N)=O)ncn2c1=O` [TEMOZOLOMIDE], the figures for the IC50 in the series with LN-229 [8] and in the series on SNB-19 [9] were 67.8 µM and 69.9 µM, respectively.
